According to publication PMC12977544, “Phenotypic high-throughput screening identifies modulators of gut microbial choline metabolism” (mBio, 2026):

Experiments:
[1] = biological target: T1, purified CutC (choline trimethylamine-lyase) (Oleidesulfovibrio alaskensis, UniProt Q30W70); assay: In vitro CutC activity assay coupled to YADH/NADH (absorbance 340 nm); format: biochemical, Desulfovibrio desulfuricans G20; conditions: 5 nM CutC, 200 µM choline, 20°C, anaerobic
T1 construct: made in house
Protocol: To investigate if our compounds were inhibiting CutC directly, we tested their activity toward the purified enzyme. The activity of CutC was determined using a coupled enzyme assay, where the acetaldehyde product from the cleavage of choline to TMA is reduced to ethanol by yeast alcohol dehydrogenase (YADH) using nicotinamide adenine dinucleotide (NADH) as a cofactor. The consumption of NADH results in a change in absorption at 340 nm, and this rate of change of absorption was used to calculate the initial rates of reaction of CutC in the presence of varying concentrations of inhibitors ([14], [65]).
CutC and CutD enzymes from Desulfovibrio desulfuricans G20 were purified, CutC was activated by incubation with CutD, and the amount of glycyl radical installation was quantified as previously described ([15]). The IC50 of compounds was determined in an in vitro CutC activity assay, where CutC activity is coupled to the NADH-dependent enzymatic reduction of acetaldehyde by YADH ([15]). Briefly, assays were conducted in an anaerobic chamber (MBraun) under N2 atmosphere at 20°C. In 50 mM potassium phosphate buffer (pH 8.0, 50 mM KCl), 40 µM of CutD and 150 µM of sodium dithionite were incubated for 20 min before the addition of 200 µM of SAM and 20 µM of CutC monomer. The mixture was incubated for 1 h to activate the glycyl radical enzyme, after which the activated CutC mixture was diluted […] in 50 mM potassium phosphate buffer (pH 8.0, 50 mM KCl). A master mix containing 200 µM NADH, 0.4 µM YADH (Sigma), and the diluted CutC mixture (5 nM final concentration in assay) was prepared and aliquoted into 96-well plates (180 µL per well). Ten microliters of inhibitor or DMSO vehicle was added, followed by 10 µL of aqueous choline chloride solution (final concentration 200 µM). Absorbance was measured at 340 nm immediately after addition of all assay components, with measurements taken every 20 s for 10 min. Initial rates were calculated from absorbance measurements and fitted to Michaelis–Menten equation using nonlinear regression in GraphPad Prism 10 (v. 10.4.0). Background activity was subtracted using no substrate controls, and initial rates for each inhibitor concentration were normalized to no inhibitor controls. IC50 values were obtained by plotting normalized activity values against the logarithm of inhibitor concentration and fitting to a nonlinear regression model in GraphPad Prism 10 (v. 10.4.0).

[2] = test system: Anaerococcus hydrogenalis DSM 7454; assay: TMA inhibition in bacterial whole cells (LC–MS/MS of d9-TMA from d9-choline); format: cell-based; conditions: 1 mM d9-choline in PBS, 75 min, 37°C, anaerobic; for EC50: Anaerococcus hydrogenalis, DSM7454, 1.25 h
Protocol: (§1) For TMA inhibition assays, E. coli and P. mirabilis were grown in NCE medium supplemented with 20 mM choline chloride, A. hydrogenalis was grown in MEGA medium supplemented with 3 mM choline chloride, and C. sporogenes was grown in BHI medium supplemented with 20 mM of choline chloride to induce expression of the cut gene cluster. For MIC assays, all bacteria strains were grown in MEGA medium.
(§2) Compounds were stored as 10 mM DMSO stocks at –20°C and diluted in DMSO to prepare varying concentrations of inhibitors for testing. Bacteria were grown anaerobically overnight in media supplemented with choline as described above. Cells were pelleted and resuspended in PBS, and d9-choline chloride was added to a final concentration of 1 mM. The final OD600 of the PBS cell resuspensions is as follows: 0.4 (E. coli), 0.15–0.2 (P. mirabilis), 0.2 (C. sporogenes), and 0.4 (A. hydrogenalis). The resuspended cells were added to 96-well plates containing inhibitors (final concentration of 1% DMSO, with final inhibitor concentrations ranging between 0 and 325 µM). The plates were sealed and incubated for 75 min (or 90 min for P. mirabilis) at 37°C. Following incubation, the plates were removed from the anaerobic chamber and analyzed immediately or kept at –20°C until LC–MS/MS analysis. Each inhibitor concentration was tested in triplicate. EC50 values were calculated with GraphPad Prism by fitting the log(inhibitor) vs response—Variable slope (four-parameter) model for non-linear regression.
(§3) Samples were kept frozen until analysis and kept cold on ice during handling due to the volatility of TMA. Bacterial cell resuspensions in PBS were diluted 100-fold in LCMS-grade acetonitrile with 0.1% formic acid to lyse cells, precipitate proteins, and extract metabolites. Samples were centrifuged at 4,000 rpm for 10 min at 4°C to pellet proteins. The supernatants were then further diluted 20-fold in LCMS-grade acetonitrile with 0.1% formic acid, and the resulting solution was analyzed by LC–MS/MS.
(§4) LC–MS/MS analysis was performed on an Agilent 1290/6470 Triple Quadrupole LC–MS instrument (Agilent Technologies) using electrospray ionization. The mass spectrometer was operated in multiple reaction monitoring (MRM) mode with positive ionization monitoring. The precursor–product ion pairs used in MRM mode were as follows: m/z 69.1m/z → 49.1 (d9-TMA) and m/z 113.2 m/z → 69.1 (d9-choline). The capillary voltage was set to 4.0 kV, and the fragmentor voltage was set to 30 V (d9-TMA) and 115 V (d9-choline). The collision energy for the precursor–product ion pairs was set to 29 V (d9-TMA) and 21 V (d9-choline). MS^1 resolution was set to wide and MS^2 resolution to unit. The drying gas temperature was maintained at 250°C, with a flow rate of 11 L/min and a nebulizer pressure of 45 psi. The time filter width used was 0.07 min. The injection volume of all samples was 1 μL. Samples were injected onto InfinityLab Poroshell 120 (Agilent) HILIC columns (2.7 μm, 100 mm × 2.1 mm, 100 Å) preceded by InfinityLab Poroshell 120 HILIC guard columns (2.1 mm, 1.9µm UHPLC guard). The LC conditions on the binary pump were as follows: a gradient of 5–35% A increasing over 1.95 min (1.2 mL/min), a gradient of 35–5% A decreasing over 0.05 min (1.6 mL/min), and held at 5% A for 0.5 min (2 mL/min). […] Solvent A was 10 mM ammonium formate with 0.1% formic acid, and solvent B was acetonitrile with 0.1% formic acid. Data analysis was performed with Mass Hunter Workstation Data Acquisition and Qualitative Analysis software (Agilent Technologies).

[3] = test system: Clostridium sporogenes ATCC 15579; assay: as above; format: cell-based; conditions: Clostridium sporogenes, ATCC15579, 1.25 h; 1 mM d9-choline in PBS, 75 min, 37°C, anaerobic
Protocol: as §1, §2, §3, §4

[4] = test system: Proteus mirabilis ATCC 29906; assay: as above; format: cell-based; conditions: Proteus mirabilis, ATCC29906, 1.5 h; 1 mM d9-choline in PBS, 90 min, 37°C, anaerobic; read-out: EC50 in whole cells, P. mirabilis (TMA inhibition)
Protocol: as §1, §2, §3, §4

T1 sequence (Q30W70 53-846): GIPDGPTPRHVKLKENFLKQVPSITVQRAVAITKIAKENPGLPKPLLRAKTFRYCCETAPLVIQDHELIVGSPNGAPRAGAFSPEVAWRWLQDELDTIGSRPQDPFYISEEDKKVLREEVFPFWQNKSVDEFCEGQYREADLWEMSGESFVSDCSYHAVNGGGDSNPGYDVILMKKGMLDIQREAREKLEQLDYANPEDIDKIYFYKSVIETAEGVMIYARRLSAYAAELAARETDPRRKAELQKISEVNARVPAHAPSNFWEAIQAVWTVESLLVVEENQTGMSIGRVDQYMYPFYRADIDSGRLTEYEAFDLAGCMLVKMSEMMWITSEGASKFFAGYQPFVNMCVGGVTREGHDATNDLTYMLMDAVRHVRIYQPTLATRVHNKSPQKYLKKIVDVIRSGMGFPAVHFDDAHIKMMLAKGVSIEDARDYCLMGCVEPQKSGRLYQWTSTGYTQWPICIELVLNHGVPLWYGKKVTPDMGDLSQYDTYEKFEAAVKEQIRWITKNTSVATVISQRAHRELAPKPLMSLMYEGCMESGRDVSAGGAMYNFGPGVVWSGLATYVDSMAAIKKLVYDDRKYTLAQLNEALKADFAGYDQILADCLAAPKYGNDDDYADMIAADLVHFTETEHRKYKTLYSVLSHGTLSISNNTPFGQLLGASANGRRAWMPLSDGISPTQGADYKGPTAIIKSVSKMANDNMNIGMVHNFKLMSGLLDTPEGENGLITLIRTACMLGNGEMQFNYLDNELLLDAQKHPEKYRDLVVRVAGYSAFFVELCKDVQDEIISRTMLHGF

Compound | IC50 [1] | EC50 [2] | EC50 [3] | EC50 [4] | EC50 in whole cells, A. hydrogenalis (TMA inhibition) [2]
Cc1ccc(-c2cc(C(=O)NCCCCCN3CCCCCC3)c(C)[nH]2)cc1C [Compound 45] | 17 µM | 18 µM | 14 µM | 7 µM | –
Cc1ccc(-c2cc(C(=O)NCCCN3CCC(C)CC3)c(C)[nH]2)cc1C [Compound 6] | 48 µM | 31 µM | 132 µM | 48 µM | –
Cc1ccc(-c2cc(C(=O)NCCCN3CCc4ccccc4C3)c(C)[nH]2)cc1C [Compound 5] | – | – | 28 µM | 33 µM | No inhibition
